Measured values reported in patent US11952328B2, “Selective ship inhibitors for treating disease” (THE RESEARCH FOUNDATION FOR THE STATE UNIVERSITY OF NEW YORK, priority 2018, dated 2024).
Entries after “also recorded” stand apart in the source; their conditions may differ.

Tested on: RMA-Rael cells
Assay: RMA-Rael viability following in vitro treatment
Type: cell-based, mice
Conditions: 24 h, doses given as 5-20 pM, vs solvent only
Text: FIGS. 5A-5I show the effects of SHIP1 inhibitor as a chemotherapeutic. […] FIG. 5D and FIG. 5E show the representative histograms and box-and-whisker plots of FasL expression by NK cells from C56BL/6 (p=0.0002; Unpaired t test with Welch's correction) or RAG1−/− (p<0.0001; Mann-Whitney U test) tumor challenged, SHIP inhibitor or vehicle treated hosts. […] (NK cells p=0.0192; Unpaired t test with Welch's correction. T cells p=0.0659; Mann-Whitney U test). Additionally, FIGS. 5A-5G show the analysis by flow cytometry on day 3 after hosts receive SHIP inhibitor or vehicle for two consecutive days. NK cells are defined as NK1.1+CD3ε−. The graphs are representative of at least two independent experiments with at least four SHIP inhibitor and vehicle treated mice. […] Viability is expressed as frequency at a given concentration expressed as a percentage of solvent only treated cells. The kill curve summarizes pooled data from three independent experiments using six replicate wells/concentration with mean ±SEM indicated (n=18 per group. One-way ANOVA with Dunnett's multiple comparisons. 0 pM vs. 20 pM Adjusted p value =0.0001. 0 pM vs. 15 pM Adjusted p value =0.0001. 0 pM vs. 10 pM Adjusted p value =0.0001. 0 pM vs. 7.5 pM Adjusted p value =0.0001. 0 pM vs. 5 pM Adjusted p value =0.0001). […]

Question: With `CC(C)CCC[C@@H](C)[C@H]1CC[C@H]2[C@@H]3CCC4C[C@H](N)CC[C@]4(C)[C@H]3CC[C@]12C` (stereo partly drawn) [Compound 3AC, 3-α-aminocholestane] as the molecule, how does the “RMA-Rael viability (direct killing)” value read?
Answer: capable of directly killing RMA-Rael cells; also recorded: cytotoxic
